According to PubChem BioAssay (NCI):
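Cells were grown in 96-well plates and exposed to each compound for 48 hours at five concentrations; endpoints were interpolated linearly between bracketing concentrations, or set to the highest concentration if not reached. TGI denotes the concentration required for complete inhibition of growth.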

Assays:
Assay in all cases: inhibition of tumour cell growth, NCI panel, 48 h
[1] = system: RPMI-8226 leukemia
[2] = system: A549 NSCLC
[3] = system: CAKI-1 renal
[4] = system: HOP-92 NSCLC
[5] = system: SK-OV-3 ovarian
[6] = system: COLO 205 colon
[7] = system: PC-3 prostate
[8] = system: SR leukemia
[9] = system: 786-0 renal
[10] = system: ACHN renal
[11] = system: SW-620 colon
[12] = system: CCRF-CEM leukemia
[13] = system: MALME-3M melanoma
[14] = system: SNB-75 CNS
[15] = system: HCT-116 colon
[16] = system: UO-31 renal
[17] = system: SF-295 CNS

Cc1ccc(C2SC(N)=Nc3c2c(C)nn3C(=O)c2ccccc2O)cc1 (configuration not stated)
TGI [1]: > 10 µM
TGI [2]: > 10 µM
TGI [3]: > 10 µM
TGI [4]: 5.02 µM
TGI [5]: > 10 µM
TGI [6]: > 10 µM
TGI [7]: > 10 µM
TGI [8]: > 10 µM
TGI [9]: > 10 µM
TGI [10]: > 10 µM
TGI [11]: > 10 µM
TGI [12]: > 10 µM
TGI [13]: > 10 µM
TGI [14]: 7.14 µM
TGI [15]: > 10 µM
TGI [16]: > 10 µM

O=C(NNCc1ccco1)c1cc2ccccc2[nH]1
TGI [1]: > 100 µM
TGI [2]: > 100 µM
TGI [3]: > 100 µM
TGI [17]: > 100 µM
TGI [4]: > 96.4 µM
TGI [5]: > 100 µM
TGI [6]: > 100 µM
TGI [7]: > 100 µM
TGI [8]: > 100 µM
TGI [9]: > 100 µM
TGI [10]: > 100 µM
TGI [11]: > 100 µM
TGI [12]: > 100 µM
TGI [13]: > 100 µM
TGI [14]: > 100 µM
TGI [15]: > 100 µM
TGI [16]: > 100 µM

Nc1ccc(CCSSCCc2ccc(N)cc2)cc1
TGI [1]: > 81.8 µM
TGI [2]: > 100 µM
TGI [3]: > 85.2 µM
TGI [17]: > 100 µM
TGI [4]: > 100 µM
TGI [5]: > 100 µM
TGI [6]: > 100 µM
TGI [7]: > 78.9 µM
TGI [8]: 31.6 µM
TGI [9]: 36.6 µM
TGI [10]: > 93.2 µM
TGI [11]: > 76.8 µM
TGI [12]: > 100 µM
TGI [13]: 41.6 µM
TGI [14]: > 94.5 µM
TGI [15]: 31.9 µM
TGI [16]: > 82.8 µM

O=C1C=CC2(O)OCCN(CCO)C2=C1 (configuration not stated) (tested in a mixture with another compound)
TGI [1]: > 100 µM
TGI [2]: > 100 µM
TGI [3]: > 100 µM
TGI [17]: > 100 µM
TGI [4]: > 100 µM
TGI [5]: > 100 µM
TGI [6]: > 100 µM
TGI [7]: > 100 µM
TGI [8]: > 100 µM
TGI [9]: > 100 µM
TGI [10]: > 100 µM
TGI [11]: > 100 µM
TGI [12]: > 100 µM
TGI [13]: > 100 µM
TGI [14]: > 100 µM
TGI [15]: > 100 µM
TGI [16]: > 100 µM

N#Cc1ccc(C(=O)/C=C/c2ccc(O)c(O)c2)cc1
TGI [1]: 25.2 µM
TGI [2]: 31.8 µM
TGI [3]: 29.6 µM
TGI [17]: 33.9 µM
TGI [4]: 29.6 µM
TGI [5]: > 57.7 µM
TGI [6]: 30.5 µM
TGI [7]: 30 µM
TGI [8]: 6.27 µM
TGI [9]: > 52.9 µM
TGI [10]: 31.8 µM
TGI [11]: 26.2 µM
TGI [12]: 14.3 µM
TGI [13]: 29.3 µM
TGI [14]: 36.6 µM
TGI [15]: 22.8 µM
TGI [16]: 25.1 µM

Cc1ccc(N2CCC3(CC2)OCCO3)cc1
TGI [1]: > 100 µM
TGI [2]: > 100 µM
TGI [3]: > 100 µM
TGI [17]: > 100 µM
TGI [4]: > 100 µM
TGI [5]: > 100 µM
TGI [6]: > 100 µM
TGI [7]: > 100 µM
TGI [8]: > 100 µM
TGI [9]: > 100 µM
TGI [10]: > 100 µM
TGI [11]: > 100 µM
TGI [12]: > 100 µM
TGI [13]: > 100 µM
TGI [14]: > 100 µM
TGI [15]: > 100 µM
TGI [16]: > 100 µM

NC(=S)N/N=C1/CCCC2CCCC[C@@H]12 (some centres not stated)
TGI [1]: > 100 µM
TGI [2]: > 100 µM
TGI [3]: > 100 µM
TGI [17]: > 100 µM
TGI [4]: > 100 µM
TGI [5]: > 100 µM
TGI [6]: > 100 µM
TGI [7]: > 100 µM
TGI [8]: > 100 µM
TGI [9]: > 100 µM
TGI [10]: > 100 µM
TGI [11]: > 100 µM
TGI [12]: > 100 µM
TGI [13]: > 100 µM
TGI [14]: > 100 µM
TGI [16]: > 100 µM
